Reference: patent publication US9828344B2, “Inhibitors of the notch signaling pathway and secretion for use in medicine” (Leibniz-Institut für Altersforschung Fritz-Lipmann-Institut …, priority 2012, dated 2017)
Peptide text beside a SMILES is read from it. * marks the point of attachment. Cbz = O=C(OCc1ccccc1)*

Experiments:
[1] = test system: NotchΔE-EGFP; experiment: cells; assay type: cell-based; settings: for activity in NotchΔE-EGFP cells (enuc/nuc ratios): SAR and prior-art comparison, FIG. 5a/5b; for change of reporter localization quantified by automated microscopy: assay validation, monensin 6 h dose-dependent, MG132 1 μM 16 h
Excerpt: To identify novel regulatory factors involved in Notch trafficking/processing an image-based high content screen was set up. […] NotchΔE-EGFP is a direct substrate for γ-secretase at the PM, and under physiological conditions is proteolytically processed to NICD-EGFP that translocates into the nucleus (for scheme see FIG. 1b), resulting in a strong nuclear EGFP-staining in steady state^15 (FIG. 1d). […] Importantly, changes in subcellular localization of the reporter are amenable to quantitation by automated microscopy^15. Accordingly, reporter fluorescence was determined in the nucleus (nuc) and in a ring around the nucleus (enuc), and the ratio enuc/nuc was evaluated (schematized in FIG. 1c). Thereafter, the assay design was functionally validated. […] The assay also reliably detected trafficking defects in the secretory pathway. […] Taken together, the assay was validated for reliably detecting concentration and time dependent changes in trafficking and processing of the Notch reporter.
Cells were seeded in 96-well plates at a density of 5000 cells/well in 100 μl medium. The next day, 100 μl medium containing the respective test compounds was added. Cells were incubated for 16 h, fixed and processed for automated microscopy. For the putative gamma-secretase inhibitors the enuc intensity was divided by the DAPT control and for the trafficking inhibitors normalized percentage inhibition against DAPT/DMSO controls of log 2 transformed nuc/enuc ratios were calculated. Relative activity values were read into “R” (http://www.r-project.org/) and EC50 estimates were calculated using four-parameter log-logistic fit with the package “drc”^51.
Images were acquired on an ArrayScan VTi automated microscope (ThermoFisher) and numerical data were extracted with the Compartmental Analysis BioApplication of the bundled software suite. Compound screening raw data were collected at the FMP and data transformation was performed according to standard procedures (ref 17 and supp. Refs 6-7).

[2] = test system: γ-secretase; experiment: In vitro γ-secretase assay with isolated membranes; assay type: biochemical; settings: 37° C.
Procedure: (§1) FIG. 3: Effect of compounds on NotchΔE-EGFP, APP and Klotho trafficking and processing. a) HEK293 stably expressing APPswe or Klotho (KI) were incubated with DAPT or compounds (10 μM) for 16 h. Media were collected, cells lysed and both assayed by Western blotting using indicated antibodies. m, mature; im, immature; s, shedded ectodomain; CTF, C-terminal fragment. b) Membranes from HeLa-NotchΔE-EGFP and APPswe cells were isolated and subjected to a γ-secretase in vitro assay in the presence of DAPT or compounds as indicated. NICD and AICD were detected by Western Blotting using antibodies against the C-terminus of APP (top) or antibodies specific for NICD (bottom). c) Quantitation from 5 independent experiments.
To test whether FLI-06 affected other membrane proteins, Klotho, a type I protein processed like APP and Notch^20, was analyzed. […] To analyze γ-secretase activity, in vitro assays using isolated membranes were performed (FIG. 3b, c). Production of NICD-EGFP and AICD (APP intracellular domain) were assayed. Both were produced in vitro at 37° C. but not at 4° C., and their production was inhibited by DAPT.
For assaying AICD formation, membranes of HEK293 cells stably expressing APP with the Swedish mutation were isolated and incubated for 4 h at 37° C. according to Sastre et al.^52. For assaying NICD formation, membranes from HeLa NotchΔE-EGFP cells were mixed with membranes from HeLa NotchΔE-EGFP cells that were pre-treated with 10 μM DAPT overnight to enrich substrate. After incubation samples were loaded onto either 8% SDS-PA gels (NICD) or 10-20% Tris-Tricine gels (AICD), blotted and probed with cleaved-Notch antibody or antibody 6687 against APP C-terminus^53. Chemoluminescence was quantified on a LAS-4000 (Fuji) with MultiGauge software.

[3] = test system: NotchΔE-EGFP; experiment: Fluorescence microscopy of reporter localization in HeLa NotchΔE-EGFP cells; assay type: cell-based; settings: 10 μM compound, 24 h
Procedure: FIG. 10: Phenotypes of Notch inhibitors are fully reversible. HeLa NotchΔE-EGFP cells plated in LabTek coverglass were incubated for 18 h with 10 iM of indicated compounds, washed and incubated for indicated times in cell culture medium. Cells were imaged by live-microscopy. […] Scalebar, 10 im.
For a detailed analysis of subcelluar distribution of NotchΔE/NICD the resolution of the HCS images was not sufficient. Therefore, the reporter cell line was plated on coverslips and incubated with 10 μM of individual compounds from the final hit list. After 24 h the localization of NotchΔE-EGFP/NICD-EGFP was determined by fluorescence microscopy. […] (FIG. 8).
Immunofluorescence stainings were made using standard procedures^55. Imaging was performed on a Zeiss Axiovert200 or an Axio Imager, using 63× 1.4NA objectives and Zeiss Axiovision software. For live-imaging cells were plated on Lab-Tek chambered coverglass (Thermo-Fisher). Images were assembled and processed using Adobe Photoshop. For displaying weakly stained ER-tubules/sheets non-linear changes in gamma-settings were used.

[4] = test system: zebrafish embryos; experiment: Zebrafish embryo Notch phenotype (somites, ngn1 qPCR and ISH); assay type: in vivo, zebrafish Danio rerio; settings: for ngn1 positive cell clusters along the spinal cord (ISH): compared to DMSO-treated control embryos; for ngn1 mRNA levels (qPCR): relative to DMSO controls
Procedure: (§2) Cells were incubated with DAPT or 10 μM of the indicated compounds (50 μM in case of FLI-15 and -20) and after 16 h a luciferase assay was performed. […] Changes in relative gene expression levels (fold change) relative to the expression levels in DMSO controls are represented as the mean+/−SD, asterisks indicate p<0.01. Each measurement was taken from two independent samples. Each reaction was measured in triplicate. Changes in the relative expression of ngn1 were standardized to the expression of the housekeeping gene ef1a at 20 hpf. c) ISH with riboprobes specific for ngn1 was performed on dechorionated stage 4 hpf zebrafish embryos. Anterior is to the left, dorsal to the top. Magnifications of the somite region (small box) are shown. Arrows indicate larger ngn1 clusters or stronger ngn1 staining. s, sensory neurons; i, intermediate neurons; m, motor neurons.
FIG. 11: Selected compounds affect somite formation and neurogenesis in vivo in zebrafish embryos. a) Lateral view of typical representative phenotypes induced by DAPT treatment, which were used as a reference to score the effect of compounds. […] Images were taken at 24 hpf. b) Pie chart showing the cumulative relative frequency of the phenotypes in a) at 24 hpf in embryos treated with 20, 50 and 100 iM of the indicated compounds. c) ISH with riboprobes specific for ngn1 was performed on dechorionated stage 4 hpf zebrafish embryos. Anterior is to the left, dorsal to the top. Magnifications of the developing head (box) are shown. Arrows indicate larger ngn1 clusters or stronger ngn1 staining. t, telencephalon; p, protectum; h, hindbrain; d, diencephalon; tg, tegmentum; vrc, ventral rostral cluster.
(§3) We wanted to test whether the results obtained with the NotchΔE-EGFP construct are relevant for endogenous Notch signaling. Therefore we made use of C2C12 cells, a well established model for muscle development that expresses endogenous Notch^21,22. After stimulating endogenous Notch signaling by transfecting the Notch ligand Delta, Notch activity was measured by a luciferase assay using a Notch reporter^15 in the presence or absence of compounds (FIG. 4a). […] Next, we tested whether selected compounds would affect Notch signaling in vivo. […] Compounds were added to dechorionated stage 4 hpf zebrafish embryos and the effects were analyzed after 24 h by morphological inspection of somite formation. Phenotypes were ranked to four categories, normal somites, mild somite defects, strong somite defects and developmental delay. […] As an additional parameter we decided to analyze Notch-dependent genes involved in neurogenesis. Primary neurogenesis in zebrafish involves the selection of neuroblasts (repressed by Notch) from proneural clusters (Notch expressing cells), a process regulated in a negative manner by Notch-dependent lateral inhibition^25. Accordingly, neuroblast cells that express the neuronal specification factor neurogenin (ngn1^26) became more abundant when Notch signaling was impaired, for instance upon DAPT treatment^23,27. qPCR analyses on mRNA extracted from equivalent sets of embryos was performed for ngn1 expression (FIG. 4b). […] To confirm the data obtained by qPCR, whole-mount in-situ hybridizations (ISH) using an ngn1 specific riboprobe were performed (FIG. 4c, FIG. 11c). […] Taken together, FLI-06, -14, -15, -19 and -20 inhibited endogenous Notch signaling in vitro and in vivo, corroborating the NotchΔE-EGFP reporter data.
Embryos were obtained from natural spawning of wild-type TüAB strain adults, raised and staged according to supp. Ref 14. DAPT and compounds were applied at 50 iM in E3 embryo medium to zebrafish embryos with chorions torn but not completely removed from sphere stage until the stage of analysis, according to ref 23. Control embryos were mock treated with the same concentration of DMSO dissolved in E3 embryo medium. […]

[5] = test system: endogenous Notch signaling; experiment: Luciferase Notch reporter assay in C2C12 cells transfected with Delta; assay type: cell-based; settings: 10 μM, 16 h
Procedure: as §2, §3
Endogenous Notch signaling in C2C12 was determined by a luciferase assay using a 12xCSL-luciferase reporter and transfected Delta as described before^15.

[6] = test system: NotchΔE-EGFP; experiment: Western blot of NotchΔE-EGFP processing in HeLa NotchΔE-EGFP lysates; assay type: cell-based; settings: 10 μM, 18 h
Procedure: FIG. 2: Selected compounds from final hit list show distinct phenotypes. Hela NotchΔE-EGFP cells were incubated with compounds (10 μM) for 18 h, fixed and analyzed by fluorescence microscopy (a) or lysed, separated by SDS-PAGE, blotted and probed with antibodies against GFP and NICD (b). Tubulin served as loading control. c) Quantitation of NotchΔE-EGFP accumulation and NICD production from 3-4 experiments as shown in (b). […] Arrows, plasma membrane; scalebar, 10 μm.
Next, lysates of HeLa NotchΔE-EGFP cells treated with compounds were analyzed for processing of NotchΔE-EGFP by Western blot using antibodies specific for EGFP and NICD (FIG. 2b, c). The GFP antibody detected both the uncleaved reporter NotchΔE-EGFP and the γ-secretase product NICD-EGFP, whereas the NICD-specific antibody specifically detected cleaved NICD-EGFP. […] The observed effects were not cell type specific, as they were also apparent in U2OS cells stably expressing NotchΔE-EGFP (FIG. 9).

[7] = test system: APP; experiment: APP processing in HEK293 cells stably expressing APPswe; assay type: cell-based; settings: 10 μM, 16 h
Procedure: as §1
To test if the compounds that affected NotchΔE-EGFP processing also affected APP processing, HEK293 cells were used that stably expressed APPswe, a mutated APP that yields robust amounts of Aβ^18. […] All other compounds had no effect on APPCTF or Aβ.
APP, APPs, APPCTF and Aβ detection was as described before^54 using antibodies 22C11 for APP and APPs, 6687 for APPCTF and 3552 and 2D8 for Aβ. Klotho was detected as described in Bloch et al.^20. Chemoluminescence was quantified on a LAS-4000 (Fuji) with MultiGauge software.

SMILES: COCCOC(=O)C1=C(C)NC2=C(C(=O)CC(c3ccc(Cl)cc3)C2)C1c1ccccc1F (stereo not drawn) [C3]
- activity in NotchΔE-EGFP cells (enuc/nuc ratios) [1]: no activity

SMILES: COCCOC(=O)C1=C(C)NC2=C(C(=O)CC(c3ccccc3)C2)C1c1ccccc1F (stereo not drawn) [C4]
- activity in NotchΔE-EGFP cells (enuc/nuc ratios) [1]: no activity

SMILES: COC(=O)C1=C(C)NC2=C(C(=O)CC(c3ccc(Cl)cc3)C2)C1c1ccccc1F (stereo not drawn) [C5]
- activity in NotchΔE-EGFP cells (enuc/nuc ratios) [1]: no activity

SMILES: C[C@H](NC(=O)Cc1cc(F)cc(F)c1)C(=O)N[C@H](C(=O)OC(C)(C)C)c1ccccc1 [DAPT, reference compound]
- NICD-EGFP and AICD production in isolated membranes [2]: inhibited
- localization of NotchΔE-EGFP/NICD-EGFP [3]: accumulated at the PM
- cell viability by visual inspection [1]: viable at all times
- t1/2 of decrease of NICD-EGFP fluorescence in the nucleus ([1]; 1 μM DAPT): 4.7 ± 1.0 h
- t9/10 of decrease of NICD-EGFP fluorescence in the nucleus ([1]; 1 μM DAPT): 8.6 ± 2.9 h
- ngn1 positive cell clusters in the developing brain (ISH) ([4]; 50 μM, compared to DMSO controls): differentially expanded
- ngn1 positive cell clusters along the spinal cord (ISH) ([4]; 50 μM): expanded and denser clusters of ngn1 positive cells
- ngn1 mRNA levels (qPCR) ([4]; 50 μM): significantly increased
- somite/morphological phenotype ([4]; embryos treated from 4-6 hpf, scored at 24 hpf): either defective somitogenesis (mild), head and trunk malformation (strong) or developmental delay (delayed)

SMILES: COc1ccc(C(=O)O)cc1Nc1nc2ccccc2nc1NS(=O)(=O)c1ccc(Cl)cc1 [FLI-16]
- inhibition of endogenous Notch signaling [5]: strongly
- NICD-EGFP and AICD production in isolated membranes [2]: did not affect in vitro γ-secretase activity
- NotchΔE-EGFP processing [6]: no influence on NotchΔE-EGFP processing
- localization of NotchΔE-EGFP/NICD-EGFP [3]: did not alter the reporter localization
- ngn1 positive cell clusters along the spinal cord (ISH) ([4]; 50 μM): reduced
- ngn1 mRNA levels (qPCR) ([4]; 50 μM): did not induce significant changes
- APPs (shedded ectodomain) secretion [7]: reduced APPs secretion

SMILES: COCCOC(=O)C1=C(C)NC2=C(C(=O)CC(c3ccccc3OC)C2)C1c1cccc(O)c1 (stereo not drawn) [HPI-1]
- activity in NotchΔE-EGFP cells (enuc/nuc ratios) [1]: no activity

SMILES: CC(C)C[C@@H](C=O)NC(=O)[C@H](CC(C)C)NC(=O)[C@H](CC(C)C)NC(=O)OCc1ccccc1 [MG132] (Cbz-Leu-Leu-Leu-aldehyde)
- change of reporter localization quantified by automated microscopy [1]: accumulation of NICD in the nucleus

SMILES: CCCCCOC(=O)C1=C(C)NC2=C(C(=O)CC(C)(C)C2)C1c1ccc([N+](=O)[O-])cc1 (stereo not drawn) [ST216093]
- activity in NotchΔE-EGFP cells (enuc/nuc ratios) [1]: show the desired activity

SMILES: CC1=C(C(=O)OC2CCCCC2)C(c2ccc([N+](=O)[O-])cc2)C2=C(CC(C)(C)C/C2=N\OCC(=O)O)N1 (stereo not drawn) [compound 6, E-2-(((3′-Cyclohexyloxycarbonyl-4″-nitrophenyl-2′,7′,7′-trimethyl-1′,4′,5′,6′,7′,8′-hexahydroquinoline-5′-ylidene)amino)oxy)acetic acid]
- activity in NotchΔE-EGFP cells (enuc/nuc ratios) [1]: entirely inactive

SMILES: CC[C@@]1([C@@H]2O[C@@H]([C@H]3O[C@@](O)(CO)[C@H](C)C[C@@H]3C)C[C@@H]2C)CC[C@H]([C@]2(C)CC[C@]3(C[C@H](O)[C@@H](C)[C@@H]([C@@H](C)[C@@H](OC)[C@H](C)C(=O)O)O3)O2)O1 [monensin]
- change of reporter localization quantified by automated microscopy [1]: blocking the anterograde transport of NotchΔE-EGFP
